Legend:
[1] = Protocol: (§1) Eppendorf vials (1.5 mL size) were charged with model compounds in excess. […] The vials were briefly vortexed and equilibrated in an end-over-end rotator at 30.0° C. for 20 hours.
as §1

[2] = Water absorption of compound storage media (Karl Fischer titration); assay type: physicochemical; details: for Water content at t = 7 d: room temperature, pierced septum
Protocol: General procedure for calculation of water absorption. Oven-dried flasks capped with septa were cooled under a N2 atmosphere and charged with a volume of the appropriate solutions (DMSO, 3.0 mL; NMP, 600 μL; 25% 3/NMP, 600 μL). The water content was determined by Karl Fischer titration using about 100 μL aliquots (t=0 measurement). Each septum was pierced with a 1.5 inch 18 gauge needle and left to stand at room temperature for 7 days. The water content was measured at the end of this period (t=7 d measurement) by Karl Fischer titration. All measurements were made in duplicate. Results and Discussion.

[3] = reported value; cited from earlier work
[4] = system: breast cancer cell line (MDA-MB-231); assay type: cell-based
From the text: (§2) The cellular toxicity of sulfoxide 3 was further determined for a breast cancer cell line (MDA-MB-231) and a liver cell line (HepG2).

liver cell line (HepG2) = assay type: cell-based
From the text: as §2

Brine shrimp = Brine shrimp toxicity assay; assay type: in vivo
Protocol: General procedure for brine shrimp toxicity assays. Sample preparation. Stock solutions of 3 were prepared by dissolving 3 (50.0 mg) in 5.0 HPLC grade water (5.0 mL), (solution A) and 3 (2.50 g) in HPLC grade water (10.0 mL) (solution B). Stock solutions of DMSO were prepared by diluting DMSO (45 μL) with HPLC grade water (5.0 mL) (solution C) and DMSO (2.27 mL) with HPLC grade water (10.0 mL) (solution D).
In each case, 5 replicates were performed. Each replicate was performed in a 2 dram vial marked at the 4 and 5 mL volume points. To each vial was added artificial sea water (3 mL) followed by the appropriate volume of stock solution. For set 1 (1.0 mg/mL), solution A (0.500 mL) or solution C (0.500 mL) was added. For set 2 (5.0 mg/mL), solution B (0.100 mL) or solution D (0.100 mL) was added to each vial. For set 3 (20.0 mg/mL), solution B (0.400 mL) or solution D (0.400 mL) was added to each vial. For set 4 (50.0 mg/mL), solution B (1.00 mL) or solution D (1.00 mL) was added to each vial. Controls containing HPLC grade water (0.100 mL, 0.400 mL, and 1.00 mL) were prepared in the same manner, and five replicates of each control were prepared.
Brine shrimp eggs (San Francisco Bay Brand) were hatched in a commercial salt mixture (Instant Ocean). Constant aeration was provided using a pump and airstone, and illumination was maintained using a desk lamp. The shrimp were collected in a separate tank after 48 hours and used within 3-4 hours of collection.
Brine shrimp were added to each vial using a plastic transfer pipet. After the shrimp were transferred, artificial sea-water was added until the volume reached the 5-mL mark. One drop of a yeast suspension prepared by suspending 11 mg yeast in sea-water (20 mL) was added to each vial. The shrimp were counted at t=24 hours. Another drop of freshly prepared yeast solution (6 mg in 10 mL sea water) was added, the vials were maintained under illumination, and shrimp were counted at t=48 hours.

## COc1cc(/C=C/C(=O)CC(=O)/C=C/c2ccc(O)c(OC)c2)ccc1O [Compound 7, curcumin]
[1]
  effect of addition of sulfoxide 3 on aqueous solubility: increased the aqueous solubility

## COC(=O)Nc1nc2ccccc2[nH]1 [Compound 10, carbendazim]
[1]
  effect of addition of sulfoxide 3 on aqueous solubility: increased the aqueous solubility

## COC1=CC(=O)C[C@@H](C)[C@]12Oc1c(Cl)c(OC)cc(OC)c1C2=O [Compound 11, griseofulvin]
[1]
  effect of addition of sulfoxide 3 on aqueous solubility: increased the aqueous solubility

## C[S+](C)[O-] [DMSO, dimethyl sulfoxide, reference compound]
[2]; first vessel
  Water content at t = 0: 160 ppm
  Water content at t = 7 d: 1080 ppm
[2]; second vessel
  Water content at t = 0: 170 ppm
  Water content at t = 7 d: 1130 ppm
[3]
  reported log P: −1.3
[4]
  GI50: ~800 mM
Liver cell line (HepG2)
  GI50: ~800 mM
Brine shrimp; 1 mg/mL
  % Mortality after 24 h: 0%
  % Mortality after 48 h: 0-10%
Brine shrimp; 5 mg/mL
  % Mortality after 24 h: 0%
  % Mortality after 48 h: 0-6%
Brine shrimp; 20 mg/mL
  % Mortality after 24 h: 0%
  % Mortality after 48 h: 0%
Brine shrimp; 50 mg/mL
  % Mortality after 24 h: 0%
  % Mortality after 48 h: 15%
Brine shrimp; same concentrations (1-50 mg/mL)
  mortality after 24 h: no mortality

## CN1CCCC1=O [NMP, N-methyl-2-pyrrolidone]
[2]; first vessel
  Water content at t = 0: 150 ppm
  Water content at t = 7 d: 12,090 ppm
[2]; second vessel
  Water content at t = 0: 130 ppm
  Water content at t = 7 d: 17,000 ppm
